Reference: PubChem BioAssay AID1963970 (Molecular Pharmacology Branch, DTP, NCI, 2024)

Tested on: 931267-113-T-J1-PDC multicell spheroid viability
Assay: Anticancer human tumor 931267-113-T-J1-PDC patient-derived colon adenocarcinoma cell line growth inhibition [PI3K]
Details: for IC50: curve of first compound; for viability, T/C: stronger effect = lower value
Source text: Combinatorial screen of targeted agents with the PI3K inhibitors inavolisib, alpelisib, duvelisib, and copanlisib in multi-cell type tumor spheroids
A high-throughput screen of multi-cell type tumor spheroids was designed to identify active combinations of targeted small molecules and PI3K pathway inhibitors. Complex spheroids include a stromal component modeled by human endothelial cells (HUVEC) and fibroblasts modeled by human mesenchymal stem cells (MSCs). The concentration ranges selected for each drug and investigational agent were based upon clinically achievable concentrations if the clinical Cmax of the agent was known.
Compounds. The drugs and investigational agents: inavolisib (NSC800729), alpelisib (NSC765974), duvelisib (NSC772469), copanlisib (NSC816437), ipatasertib (NSC767898), afuresertib (NSC778305), talazoparib (NSC767125), sapanisertib (NSC764658), selumetinib (NSC741078), tovorafenib (DAY101, NSC766906), vemurafenib (NSC761431), ravoxertinib (NSC781343), sotorasib (NSC818433), MRTX1133 (NSC 836407), abemaciclib (NSC 768073), palbociclib (NSC758247), venetoclax (NSC 766270), SY5609 (NSC837396), enzalutamide (NSC755605), and darolutamide (NSC825331), were obtained from the National Cancer Institute (NCI) Developmental Therapeutics Program Chemical Repository. The FDA-approved anticancer drug set is available from the NCI Developmental Therapeutics Program. […] The stock solutions were prepared in dimethyl sulfoxide (DMSO, Sigma-Aldrich, St. Louis, MO, cat. D2650) at 800-fold the tested concentration and stored at -70 degrees C prior to their use. All drugs and investigational agents were tested over a range starting from a high concentration at or near the clinical Cmax and decreasing in half-log increments. If the clinical Cmax for an agent had not been determined, the highest concentration tested was 10 microM.
Cell Culture. All cells were maintained in an incubator at 37 degrees C and 5% CO2 with 95% humidity. The PDC lines were cultured according to standard operating procedures established by the NCI PDMR (https://pdmr.cancer.gov/sops/default.htm). All PDCs were thawed and cultured in Matrigel-coated flasks prepared with a working solution of 1X Ham's F-12 nutrient mix, without supplementation (Invitrogen, Waltham, MA, cat. 11765054), 100 U/mL penicillin-streptomycin (Invitrogen, cat. 15140122), and 2.5% Matrigel (Corning Inc., Corning, NY, cat. 354248) for the first three passages. The 354836-022-R-J1-PDC, 475296-252-R-J1-PDC, and 997726-040-R-J2-PDC lines were cultured in 6A media, which includes advanced DMEM/F-12 (Thermo Fisher Scientific, cat. 12634028), 10 mM HEPES (Thermo Fisher Scientific, cat. 15630080), 1X GlutaMAX supplement (Thermo Fisher Scientific, cat. 35050061), 0.1 mg/mL primocin (InvivoGen, San Diego, CA, cat. ant-pm-2), 10% defined fetal bovine serum, heat inactivated (HyClone Laboratories Inc., Logan, UT, cat. SH30070.03HI), 50% L-WRN conditioned media (ATCC, cat. CRL-3276), 1.25 mM N-Acetyl-L-cysteine (Sigma-Aldrich, cat. A9165), 10 mM nicotinamide (Sigma-Aldrich, cat. N0636), 1X B-27 supplement (Thermo Fisher Scientific, cat. 17504044), 1X N-2 supplement (Thermo Fisher Scientific, cat. 17502048), and 10 microM Y-27632 dihydrochloride (Tocris Bioscience, Bristol, United Kingdom, cat. 1254). The 624824-186-R-J2-PDC line was cultured in 6C/Colon 1B media, which includes all 6A media components plus 50 ng/mL human EGF recombinant protein (Thermo Fisher Scientific, cat. PHG0311). […]
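Also: viability read 7 days after compound addition.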

For `CCN1CCN(Cc2ccc(Nc3ncc(F)c(-c4cc(F)c5nc(C)n(C(C)C)c5c4)n3)nc2)CC1` + CC(Nc1ncnc2nc[nH]c12)c1cc2cccc(Cl)c2c(=O)n1-c1ccccc1, the IC50 (second compound 0.0316 µM) was greater than 1000 nM, the IC50 (second compound 0.1 µM) was greater than 1000 nM and the IC50 (second compound 0.316 µM) was greater than 1000 nM. For the same compound, the IC50 (second compound 1 µM) was greater than 1000 nM, the IC50 (second compound 3.16 µM) was greater than 1000 nM and the IC50 (second compound 10 µM) was greater than 1000 nM. It also gave a viability, T/C (second compound 0.0316 µM, first compound 0.00316 µM) of 102%, a viability, T/C (second compound 0.0316 µM, first compound 0.01 µM) of 94.6% and a viability, T/C (second compound 0.0316 µM, first compound 0.0316 µM) of 108%. The viability, T/C (second compound 0.0316 µM, first compound 0.1 µM) was 100%, the viability, T/C (second compound 0.0316 µM, first compound 0.316 µM) was 104% and the viability, T/C (second compound 0.0316 µM, first compound 1 µM) was 90.2%. The viability, T/C (second compound 0.1 µM, first compound 0.00316 µM) was 101%, the viability, T/C (second compound 0.1 µM, first compound 0.01 µM) was 110% and the viability, T/C (second compound 0.1 µM, first compound 0.0316 µM) was 104%. For the same compound, the viability, T/C (second compound 0.1 µM, first compound 0.1 µM) was 109%, the viability, T/C (second compound 0.1 µM, first compound 0.316 µM) was 100% and the viability, T/C (second compound 0.1 µM, first compound 1 µM) was 84.2%. The viability, T/C (second compound 0.316 µM, first compound 0.00316 µM) was 111%, the viability, T/C (second compound 0.316 µM, first compound 0.01 µM) was 107% and the viability, T/C (second compound 0.316 µM, first compound 0.0316 µM) was 97.7%. For the same compound, the viability, T/C (second compound 0.316 µM, first compound 0.1 µM) was 98.5%, the viability, T/C (second compound 0.316 µM, first compound 0.316 µM) was 109% and the viability, T/C (second compound 0.316 µM, first compound 1 µM) was 98.2%. For the same compound, the viability, T/C (second compound 1 µM, first compound 0.00316 µM) was 103%, the viability, T/C (second compound 1 µM, first compound 0.01 µM) was 101% and the viability, T/C (second compound 1 µM, first compound 0.0316 µM) was 105%. The viability, T/C (second compound 1 µM, first compound 0.1 µM) was 102%, the viability, T/C (second compound 1 µM, first compound 0.316 µM) was 102% and the viability, T/C (second compound 1 µM, first compound 1 µM) was 86%. For the same compound, the viability, T/C (second compound 3.16 µM, first compound 0.00316 µM) was 107%, the viability, T/C (second compound 3.16 µM, first compound 0.01 µM) was 93.4% and the viability, T/C (second compound 3.16 µM, first compound 0.0316 µM) was 86.8%. The viability, T/C (second compound 3.16 µM, first compound 0.1 µM) was 95.3%, the viability, T/C (second compound 3.16 µM, first compound 0.316 µM) was 92.8% and the viability, T/C (second compound 3.16 µM, first compound 1 µM) was 81.2%. The viability, T/C (second compound 10 µM, first compound 0.00316 µM) was 92%, the viability, T/C (second compound 10 µM, first compound 0.01 µM) was 86.7% and the viability, T/C (second compound 10 µM, first compound 0.0316 µM) was 89.7%. It also gave a viability, T/C (second compound 10 µM, first compound 0.1 µM) of 80.8%, a viability, T/C (second compound 10 µM, first compound 0.316 µM) of 81.9% and a viability, T/C (second compound 10 µM, first compound 1 µM) of 67.9%.
